# Assay results as given in US8980832B2, “Use of fumaric acid derivatives for treating cardiac insufficiency, and asthma” (Biogen Idec International GmbH, priority 2003, dated 2015).
# Where a name gives a salt, the structure may show the parent alone.
# Key:
# [1] = test system: BSM (bronchial smooth muscle) cells; test: inhibition of the PDGF-induced incorporation of 3H-thymidine in BSM cells (Example B); assay type: cell-based; conditions: 10^-5 M dimethyl fumarate; 0, 1, 5, 10 and 20 ng/ml PDGF; 24 h 3H-thymidine
# Method: BSM (bronchial smooth muscle) cells were cultivated in RPMI, 0.3% albumin and 0.1% DMSO at 37° C. in the presence of 0, 1, 5, 10 and 20 ng/ml on PDGF with and without 10^−5 M dimethyl fumarate.
# After a predetermined period of time, 5 μCi on ^3H-thymidine was added to the culture medium and incubation was continued for further 24 hours. The incorporation was finally stopped by means of centrifugation, removal of the supernatant, washing and lysis of the cells. The incorporation on ^3H-thymidine was measured by determining the radioactivity in the lysates in a liquid scintillation device in comparison to the control. The results are shown in FIG. 2 as percentage values as compared with the control (100%).
# [2] = test system: Bronchial smooth muscle cells; test: PDGF-stimulated proliferation of bronchial smooth muscle cells, 3H-thymidine (Example C); assay type: cell-based; conditions: 10 ng/ml PDGF; 10^-5 M DMF; 36 h treatment + 8 h 3H-thymidine
# Method: Bronchial smooth muscle cells were grown in 96 well plates until they reached 60-70% confluency. The cells were then starved for 48 h in serum free, 0.3% albumine containing RPMI medium. […] As a control untreated cells (buffer only) were used. Cells were treated for 36 h, whereafter 4 μCi of ^3H-thymidine was added for further 8 hours. The cells were lysed, DNA-incorporated ^3H-thymidine bound to filter membranes, and the incorporated cpm measured in a liquid scintillation device.
# Dahl-rats = test: left ventricular enddiastolic diameter in Dahl rats on high salt diet, echocardiography; assay type: in vivo, rat; conditions: 2x5 and 2x15 mg DMF/kg/d, 8 weeks of high salt diet
# Method: Dahl-rats, which are salt sensitive, were administered varying dosages of DMF on a daily basis and put on a high salt diet. After 8 weeks of treatment the left ventricular enddiastolic diameters were measured for test and control groups by echocardiographic analysis. Groups measured were control (0 mg DMF; n=9); group 1 (2×5 mg DMF/kg/d; n=9) and group 2 (2×15 mg DMF/kg/d; n=11). […] Specifically, in the DMF groups the inner diameter of the left ventricle remained in the same range as at baseline (see FIG. 4). […] Importantly, dilatation of the left ventricle marks the transition from compensated hypertrophy to decompensated heart failure. Consequently, DMF delays the transition to heart failure, and thus prevents myocardial infarctions.
# [3] = test system: rat model of acute ischemia and reperfusion; test: acute ischemia and reperfusion model of the rat, size of the infarction; assay type: in vivo; conditions: 10 mg dimethyl fumarate in 0.02% DMSO iv at beginning of first occlusion; 45 min ischemia, 120 min reperfusion; vs control
# Method: The effects of dimethyl fumarate were examined in the present experiment using the model of acute ischemia and reperfusion of the rat. For this purpose, healthy, male rats were divided into three groups with 17 animals each. In the tests, an ischemia was caused for 45 minutes through an occlusion of an artery with the heart being exposed and, subsequently, reperfusion was carried out for 120 minutes. Finally, a myocardial infarction was triggered by means of a reocclusion and the risk area was determined by means of dyeing with phthalocyanine blue. The administration of the test substance was carried out iv at the beginning of the first occlusion. The control group received 0.02% DMSO (0.5 ml/kg body weight), the DMF group received 10 mg dimethyl fumarate in 0.02% DMSO (0.5 ml/kg body weight). The animals were ischemically preconditioned in the second group (2 times 5 minutes each ischemia and reperfusion). The results are represented in FIG. 1.
compound,measurement,setting,value
"COC(=O)/C=C/C(=O)OC [DMF, dimethyl fumarate]",PDGF-induced 3H-thymidine incorporation,[1],this increase is significantly reduced
same,"cell proliferation, percentage of control (100%)",[2],116±4%
same,dilatation of the left ventricle (left ventricular enddiastolic diameter),Dahl-rats,prevented the dilatation of the left ventricle after 8 weeks of high salt diet in dose dependent manner
same,size of the infarction,[3],limited the size of the infarction to a statistically significant degree
